In paper PMC3853718 (Journal of Translational Medicine, 2013):

Test system: subjects with advanced malignancies
Assay: Phase 1 dose escalation: toxicity, safety and tolerability (DLT, MAD, RP2D, AEs)
[1] = Dose level 0.33 mg/m^2, 1 subject
[2] = Dose level 0.66 mg/m^2, 1 subject
[3] = Dose level 1.32 mg/m^2, 1 subject
[4] = Dose level 2.59 mg/m^2, 4 subjects
[5] = Dose level 3.63 mg/m^2, 8 subjects
[6] = Dose level 5.08 mg/m^2, 3 subjects
[7] = Dose level 7.11 mg/m^2, 7 subjects
[8] = Dose level 10 mg/m^2, 3 subjects
[9] = Dose level 12 mg/m^2, 11 subjects
[10] = Dose level 14 mg/m^2, 5 subjects
[11] = ≤ 5.08 mg/m^2 (n = 22), All grades
[12] = ≤ 5.08 mg/m^2 (n = 22), Grade 3–4

Description: Subjects continued on treatment until there was disease progression, unacceptable toxicity, or the subject withdrew consent. The trial employed an accelerated titration design [16] starting at a dose of 0.33 mg/m^2 (one-sixth of the highest nontoxic dose in dogs).
the dose was doubled in sequential subjects until a DLT was observed or a subject experienced grade 2 toxicity [16]. In the case of an observed grade 2 toxicity, a second subject was enrolled at the same dose level. If the second subject also experienced a grade 2 toxicity, 2 additional subjects were accrued at that dose level for a total of 4 subjects. […] Each subject was allocated to only a single dose level of drug. Dose delay or modification was permitted based on laboratory and clinical assessment performed on the day of treatment.
Dose-limiting toxicities were determined during the first cycle for each dose level. A DLT was defined as any grade 3 or 4 hematologic toxicity lasting for at least 1 week, or as any grade 3 or 4 nonhematologic toxicity. […] Normal alkaline phosphatase level (< grade 1) at screening that rose to greater than or equal to grade 3; grade 1 or 2 alkaline phosphatase level at screening that rose to grade 4; grade 1 or 2 aspartate aminotransferase (AST) and/or alanine aminotransferase (ALT) levels at screening that doubled from baseline to become greater than or equal to grade 3; and any other abnormal nonhematology laboratory value greater than or equal to grade 3 that required medical intervention to treat, led to hospitalization, or persisted for at least 1 week were also considered DLTs.
Adverse events were graded based on the National Cancer Institute Common Terminology Criteria for Adverse Events (NCI CTCAE version 3.0) and were coded using the Medical Dictionary for Regulatory Activities (MedDRA version 13.0).

## CCc1cnn2c(NCc3ccc[n+]([O-])c3)cc(N3CCCC[C@H]3CCO)nc12 [dinaciclib]
14 mg/m^2 (n = 5), Grade 3–4
  TEAE: Abdominal distension: 0 n (%)
  TEAE: Abdominal pain: 0 n (%)
  TEAE: Anemia: 1 (20) n (%)
  TEAE: Asthenia: 1 (20) n (%)
  TEAE: Back pain: 0 n (%)
  TEAE: Constipation: 0 n (%)
  TEAE: Cough: 0 n (%)
  TEAE: Decreased appetite: 0 n (%)
  TEAE: Dehydration: 0 n (%)
  TEAE: Diarrhea: 0 n (%)
  TEAE: Dizziness: 1 (20) n (%)
  TEAE: Dyspnea: 1 (20) n (%)
  TEAE: Fatigue: 0 n (%)
  TEAE: Flatulence: 0 n (%)
  TEAE: Hyperbilirubinemia: 1 (20) n (%)
  TEAE: Hyperglycemia: 1 (20) n (%)
  TEAE: Hyperuricemia: 1 (20) n (%)
  TEAE: Hypokalemia: 0 n (%)
  TEAE: Hypophosphatemia: 0 n (%)
  TEAE: Increased ALP: 1 (20) n (%)
  TEAE: Increased ALT: 0 n (%)
  TEAE: Increased AST: 0 n (%)
  TEAE: Nausea: 1 (20) n (%)
  TEAE: Neutropenia: 2 (40) n (%)
  TEAE: Peripheral edema: 0 n (%)
  TEAE: Pyrexia: 0 n (%)
  TEAE: Subjects with any AE: 5 (100) n (%)
  TEAE: Urinary tract infection: 0 n (%)
  TEAE: Vomiting: 1 (20) n (%)
  TEAE: Weight decreased: 0 n (%)
2-hour IV infusion on days 1, 8, 15 of a 28-day cycle
  maximum administered dose (MAD): 14 mg/m^2
All doses (N = 48), All grades
  TEAE: Abdominal distension: 5 (10) n (%)
  TEAE: Abdominal pain: 8 (17) n (%)
  TEAE: Anemia: 19 (40) n (%)
  TEAE: Asthenia: 11 (23) n (%)
  TEAE: Back pain: 11 (23) n (%)
  TEAE: Constipation: 11 (23) n (%)
  TEAE: Cough: 5 (10) n (%)
  TEAE: Decreased appetite: 14 (29) n (%)
  TEAE: Diarrhea: 6 (13) n (%)
  TEAE: Dizziness: 5 (10) n (%)
  TEAE: Dyspnea: 7 (15) n (%)
  TEAE: Fatigue: 14 (29) n (%)
  TEAE: Flatulence: 6 (13) n (%)
  TEAE: Hyperglycemia: 7 (15) n (%)
  TEAE: Hyperuricemia: 5 (10) n (%)
  TEAE: Hypokalemia: 6 (13) n (%)
  TEAE: Hypophosphatemia: 6 (13) n (%)
  TEAE: Increased ALP: 8 (17) n (%)
  TEAE: Increased ALT: 6 (13) n (%)
  TEAE: Increased AST: 8 (17) n (%)
  TEAE: Nausea: 19 (40) n (%)
  TEAE: Neutropenia: 8 (17) n (%)
  TEAE: Peripheral edema: 7 (15) n (%)
  TEAE: Pyrexia: 8 (17) n (%)
  TEAE: Subjects with any AE: 47 (98) n (%)
  TEAE: Urinary tract infection: 12 (25) n (%)
  TEAE: Vomiting: 11 (23) n (%)
  TEAE: Weight decreased: 5 (10) n (%)
All doses (N = 48), Grade 3–4
  TEAE: Abdominal distension: 0 n (%)
  TEAE: Abdominal pain: 2 (4) n (%)
  TEAE: Anemia: 5 (10) n (%)
  TEAE: Asthenia: 3 (6) n (%)
  TEAE: Back pain: 3 (6) n (%)
  TEAE: Constipation: 0 n (%)
  TEAE: Cough: 0 n (%)
  TEAE: Decreased appetite: 0 n (%)
  TEAE: Dehydration: 0 n (%)
  TEAE: Diarrhea: 0 n (%)
  TEAE: Dyspnea: 3 (6) n (%)
  TEAE: Fatigue: 2 (4) n (%)
  TEAE: Flatulence: 0 n (%)
  TEAE: Hyperbilirubinemia: 5 (10) n (%)
  TEAE: Hyperglycemia: 4 (8) n (%)
  TEAE: Hyperuricemia: 4 (8) n (%)
  TEAE: Hypokalemia: 2 (4) n (%)
  TEAE: Hypophosphatemia: 5 (10) n (%)
  TEAE: Increased ALP: 2 (4) n (%)
  TEAE: Increased AST: 2 (4) n (%)
  TEAE: Nausea: 1 (2) n (%)
  TEAE: Neutropenia: 5 (10) n (%)
  TEAE: Peripheral edema: 0 n (%)
  TEAE: Pyrexia: 0 n (%)
  TEAE: Subjects with any AE: 29 (60) n (%)
  TEAE: Urinary tract infection: 0 n (%)
  TEAE: Weight decreased: 0 n (%)
[1]
  DLT: None
  Subjects with DLT in cycle 1: 0
[2]
  DLT: None
  Subjects with DLT in cycle 1: 0
[3]
  DLT: None
  Subjects with DLT in cycle 1: 0
[4]
  DLT: None
  Subjects with DLT in cycle 1: 0
[5]
  DLT: Hypokalemia, hypocalcemia, hypophosphatemia
  Subjects with DLT in cycle 1: 1
[6]
  DLT: None
  Subjects with DLT in cycle 1: 0
[7]
  DLT: Deep vein thrombosis
  Subjects with DLT in cycle 1: 1
[8]
  DLT: None
  Subjects with DLT in cycle 1: 0
[9]
  DLT: Septic shock
  Subjects with DLT in cycle 1: 1
[10]
  DLT: Orthostatic hypotension (1), elevated uric acid (1)
  Subjects with DLT in cycle 1: 2
RP2D 12 mg/m^2, 11 subjects
  treatment-related AE: anemia: 5 [45%] subjects [%]
  treatment-related AE: asthenia: 3 [27%] subjects [%]
  treatment-related AE: fatigue: 4 [36%] subjects [%]
  treatment-related AE: hyperuricemia: 3 [27%] subjects [%]
  treatment-related AE: nausea: 3 [27%] subjects [%]
  treatment-related AE: neutropenia: 4 [36%] subjects [%]
  treatment-related AE: pyrexia: 3 [27%] subjects [%]
  treatment-related AE: vomiting: 3 [27%] subjects [%]
Subject 2901, Breast carcinoma, 0.33 mg/m^2, regardless of causality
  Serious adverse events: Anemia, confusion, lethargy
Subject 2914, Ovarian epithelial carcinoma, 3.63 mg/m^2, regardless of causality
  Serious adverse events: Constipation, nausea, abdominal pain, vomiting
Subject 2915, Adenocarcinoma, 3.63 mg/m^2, regardless of causality
  Serious adverse events: Hypocalcemia, hypokalemia, hypophosphatemia, coagulation time prolonged
Subject 2919, Colon cancer, 3.63 mg/m^2, regardless of causality
  Serious adverse events: Back pain, chest pain, dyspnea
Subject 2920, Melanoma, 3.63 mg/m^2, regardless of causality
  Serious adverse events: Cholelithiasis, liver disorder
Subject 2922, Ovarian epithelial cancer, 3.63 mg/m^2, regardless of causality
  Serious adverse events: Intestinal ischemia, pericardial effusion
Subject 2926, Pelvic sarcoma, 7.11 mg/m^2, regardless of causality
  Serious adverse events: Deep vein thrombosis, anemia
Subject 2927, Gastric adenocarcinoma, 7.11 mg/m^2, regardless of causality
  Serious adverse events: Vomiting, aspiration
Subject 2928, Gastrointestinal stromal tumor, 7.11 mg/m^2, regardless of causality
  Serious adverse events: Gastric ulcer, hematemesis, asthenia, sepsis, dyspnea, mental status changes, overdose
Subject 2930, SCLC, 7.11 mg/m^2, regardless of causality
  Serious adverse events: Cardiac arrest
Subject 2931, Esophageal carcinoma, 7.11 mg/m^2, regardless of causality
  Serious adverse events: Esophageal obstruction, pyrexia, hemorrhagic anemia
Subject 2937, Adenoid cyst carcinoma, 14 mg/m^2, regardless of causality
  Serious adverse events: Pneumothorax, cardiac tamponade, pneumoperitoneum, intestinal perforation, peritonitis, sepsis
Subject 2940, Breast carcinoma, 14 mg/m^2, regardless of causality
  Serious adverse events: Death
Subject 2945, NSCLC, 12 mg/m^2, regardless of causality
  Serious adverse events: Cerebrovascular accident
Subject 2947, Colorectal cancer, 12 mg/m^2, regardless of causality
  Serious adverse events: Pelvic abscess, septic shock, deep vein thrombosis
Subject 2950, Colon cancer, 12 mg/m^2, regardless of causality
  Serious adverse events: Deep vein thrombosis, bradycardia, respiratory failure, syncope, tumor lysis syndrome
Subject 2951, Ovarian metastatic cancer, 12 mg/m^2, regardless of causality
  Serious adverse events: Anemia, neutropenic sepsis, sepsis, gastrointestinal hemorrhage, diarrhea, bacterial infection, neutropenia, thrombocytopenia
All dose levels
  SAE: anemia: 3 (6%) subjects (%)
  SAE: deep vein thrombosis: 3 (6%) subjects (%)
  SAE: sepsis: 3 (6%) subjects (%)
  grade 3 or 4 treatment-related AE: hyperuricemia: 3 [6%] subjects [%]
  grade 3 or 4 treatment-related AE: neutropenia: 5 [10%] subjects [%]
  subjects with AEs leading to discontinuation of treatment: 6 (13%) subjects (%)
  subjects with grade 3 or 4 treatment-related AEs: 16 subjects
  subjects with serious AEs (SAEs): 17 (33%) subjects (%)
  treatment-related AE: anemia: 10 [21%] subjects [%]
  treatment-related AE: fatigue: 7 [15%] subjects [%]
  treatment-related AE: nausea: 16 [33%] subjects [%]
  treatment-related AE: neutropenia: 8 [17%] subjects [%]
  treatment-related AE: vomiting: 8 [17%] subjects [%]
All dose levels, 48 treated
  subjects reporting treatment-emergent adverse events: 47 (98%) subjects (%)
  subjects with AEs possibly related to study drug: 35 (73%) subjects (%)
At 1.32 mg/m^2
  instances of grade 2 toxicity: 2
Of 52 enrolled, considered unlikely related to study treatment
  deaths due to disease progression: 7 [13%] subjects [%]
Of 52 enrolled, deemed unlikely related to dinaciclib, one subject never treated
  deaths due to AEs: 4 (8%) subjects (%)
Of the 52 subjects enrolled
  subjects who died during this study: 21%
[11]
  TEAE: Abdominal distension: 3 (14) n (%)
  TEAE: Abdominal pain: 4 (18) n (%)
  TEAE: Anemia: 8 (36) n (%)
  TEAE: Asthenia: 4 (18) n (%)
  TEAE: Back pain: 8 (36) n (%)
  TEAE: Constipation: 5 (23) n (%)
  TEAE: Cough: 3 (14) n (%)
  TEAE: Decreased appetite: 9 (41) n (%)
  TEAE: Dehydration: 8 (36) n (%)
  TEAE: Diarrhea: 3 (14) n (%)
  TEAE: Dizziness: 0 n (%)
  TEAE: Dyspnea: 3 (14) n (%)
  TEAE: Fatigue: 7 (32) n (%)
  TEAE: Flatulence: 3 (14) n (%)
  TEAE: Hyperbilirubinemia: 5 (23) n (%)
  TEAE: Hyperglycemia: 1 (5) n (%)
  TEAE: Hyperuricemia: 1 (5) n (%)
  TEAE: Hypokalemia: 2 (9) n (%)
  TEAE: Hypophosphatemia: 4 (18) n (%)
  TEAE: Increased ALP: 3 (14) n (%)
  TEAE: Increased ALT: 3 (14) n (%)
  TEAE: Increased AST: 3 (14) n (%)
  TEAE: Nausea: 6 (27) n (%)
  TEAE: Neutropenia: 0 n (%)
  TEAE: Peripheral edema: 3 (14) n (%)
  TEAE: Pyrexia: 3 (14) n (%)
  TEAE: Subjects with any AE: 21 (95) n (%)
  TEAE: Urinary tract infection: 5 (23) n (%)
  TEAE: Vomiting: 2 (9) n (%)
  TEAE: Weight decreased: 4 (18) n (%)
[12]
  TEAE: Abdominal distension: 0 n (%)
  TEAE: Abdominal pain: 1 (5) n (%)
  TEAE: Anemia: 1 (5) n (%)
  TEAE: Asthenia: 2 (9) n (%)
  TEAE: Back pain: 3 (14) n (%)
  TEAE: Constipation: 0 n (%)
  TEAE: Cough: 0 n (%)
  TEAE: Decreased appetite: 0 n (%)
  TEAE: Dehydration: 0 n (%)
  TEAE: Diarrhea: 0 n (%)
  TEAE: Dizziness: 0 n (%)
  TEAE: Dyspnea: 1 (5) n (%)
  TEAE: Fatigue: 2 (9) n (%)
  TEAE: Flatulence: 0 n (%)
  TEAE: Hyperbilirubinemia: 3 (14) n (%)
  TEAE: Hyperglycemia: 0 n (%)
  TEAE: Hyperuricemia: 1 (5) n (%)
  TEAE: Hypokalemia: 1 (5) n (%)
  TEAE: Hypophosphatemia: 3 (14) n (%)
  TEAE: Increased ALP: 1 (5) n (%)
  TEAE: Increased ALT: 1 (5) n (%)
  TEAE: Increased AST: 1 (5) n (%)
  TEAE: Nausea: 0 n (%)
  TEAE: Neutropenia: 0 n (%)
  TEAE: Peripheral edema: 0 n (%)
  TEAE: Pyrexia: 0 n (%)
  TEAE: Subjects with any AE: 11 (50) n (%)
  TEAE: Urinary tract infection: 0 n (%)
  TEAE: Vomiting: 1 (5) n (%)
  TEAE: Weight decreased: 0 n (%)
